Measured values from ChEMBL document CHEMBL1201862, “PubChem BioAssay data set” (2004).
Active and inactive are the calls of the source.

Assays:
[1] = molecular target: T1, Apoptotic protease-activating factor 1 (Homo sapiens, UniProt O14727); format: functional
T1 sequence (O14727 whole entry): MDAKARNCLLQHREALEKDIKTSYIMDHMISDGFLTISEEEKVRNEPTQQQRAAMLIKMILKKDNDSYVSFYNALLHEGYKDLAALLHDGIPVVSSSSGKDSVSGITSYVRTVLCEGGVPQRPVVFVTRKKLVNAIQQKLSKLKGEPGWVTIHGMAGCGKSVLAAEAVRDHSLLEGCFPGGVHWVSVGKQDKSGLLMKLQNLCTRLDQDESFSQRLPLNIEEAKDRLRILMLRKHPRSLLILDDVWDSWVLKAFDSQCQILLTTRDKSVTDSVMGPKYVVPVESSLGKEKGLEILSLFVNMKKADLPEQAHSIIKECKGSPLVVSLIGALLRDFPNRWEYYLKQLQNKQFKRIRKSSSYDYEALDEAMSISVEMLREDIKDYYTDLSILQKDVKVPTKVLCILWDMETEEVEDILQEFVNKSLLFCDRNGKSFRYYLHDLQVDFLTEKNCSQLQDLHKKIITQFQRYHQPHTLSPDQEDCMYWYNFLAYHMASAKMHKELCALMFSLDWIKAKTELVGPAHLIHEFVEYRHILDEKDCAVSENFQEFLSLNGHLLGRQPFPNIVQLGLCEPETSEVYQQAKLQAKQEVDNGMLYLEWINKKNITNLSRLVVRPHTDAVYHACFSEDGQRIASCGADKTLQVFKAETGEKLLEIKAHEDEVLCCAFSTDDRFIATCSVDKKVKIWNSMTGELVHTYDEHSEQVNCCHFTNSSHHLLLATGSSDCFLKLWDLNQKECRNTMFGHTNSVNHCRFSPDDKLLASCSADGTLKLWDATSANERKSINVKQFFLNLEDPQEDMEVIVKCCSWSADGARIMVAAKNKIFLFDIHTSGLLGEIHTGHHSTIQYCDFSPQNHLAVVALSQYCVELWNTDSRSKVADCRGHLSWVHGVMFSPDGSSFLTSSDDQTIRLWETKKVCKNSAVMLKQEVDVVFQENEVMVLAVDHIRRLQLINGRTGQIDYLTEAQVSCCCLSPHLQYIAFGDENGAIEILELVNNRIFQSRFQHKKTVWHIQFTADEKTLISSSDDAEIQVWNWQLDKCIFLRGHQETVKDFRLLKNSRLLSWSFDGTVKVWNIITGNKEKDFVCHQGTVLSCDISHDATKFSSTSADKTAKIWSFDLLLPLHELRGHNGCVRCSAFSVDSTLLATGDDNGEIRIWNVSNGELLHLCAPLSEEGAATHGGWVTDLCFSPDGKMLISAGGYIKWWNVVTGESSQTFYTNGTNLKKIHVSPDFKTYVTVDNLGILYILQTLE

[2] = molecular target: T2, Sentrin-specific protease 6 (Homo sapiens, UniProt Q9GZR1); format: functional;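 note: Luminescence-based dose-response confirmatory assay of SENP6 inhibition, following up an ultra-high-throughput screen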
T2 sequence (Q9GZR1 whole entry): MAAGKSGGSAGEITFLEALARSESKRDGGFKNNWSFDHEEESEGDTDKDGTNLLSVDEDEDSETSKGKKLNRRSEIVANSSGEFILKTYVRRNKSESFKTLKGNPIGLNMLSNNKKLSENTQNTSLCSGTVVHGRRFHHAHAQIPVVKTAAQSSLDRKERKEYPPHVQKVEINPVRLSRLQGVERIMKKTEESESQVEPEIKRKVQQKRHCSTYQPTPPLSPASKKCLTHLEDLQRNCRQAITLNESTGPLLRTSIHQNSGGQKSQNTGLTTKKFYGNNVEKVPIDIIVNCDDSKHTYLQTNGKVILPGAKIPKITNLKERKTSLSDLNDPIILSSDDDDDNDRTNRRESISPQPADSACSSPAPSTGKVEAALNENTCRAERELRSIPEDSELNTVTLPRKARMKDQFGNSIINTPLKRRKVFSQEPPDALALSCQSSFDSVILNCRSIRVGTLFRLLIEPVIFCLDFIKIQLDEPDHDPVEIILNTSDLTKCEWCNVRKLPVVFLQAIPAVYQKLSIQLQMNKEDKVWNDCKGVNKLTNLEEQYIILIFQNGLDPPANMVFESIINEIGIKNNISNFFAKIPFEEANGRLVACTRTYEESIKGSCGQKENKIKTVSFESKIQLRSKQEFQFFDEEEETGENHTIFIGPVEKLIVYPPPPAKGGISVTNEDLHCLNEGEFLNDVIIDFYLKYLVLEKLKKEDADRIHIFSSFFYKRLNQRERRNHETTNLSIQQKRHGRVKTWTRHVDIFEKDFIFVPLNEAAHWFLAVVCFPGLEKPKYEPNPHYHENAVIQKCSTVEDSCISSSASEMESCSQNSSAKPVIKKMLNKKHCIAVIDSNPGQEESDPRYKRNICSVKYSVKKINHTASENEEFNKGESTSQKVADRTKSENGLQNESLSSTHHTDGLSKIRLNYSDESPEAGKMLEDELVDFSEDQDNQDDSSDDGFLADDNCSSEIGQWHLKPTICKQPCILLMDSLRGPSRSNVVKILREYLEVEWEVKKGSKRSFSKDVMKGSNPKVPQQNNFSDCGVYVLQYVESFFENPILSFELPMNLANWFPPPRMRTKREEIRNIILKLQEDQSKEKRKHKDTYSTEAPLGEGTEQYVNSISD

[3] = molecular target: T3, Caspase-3 (Homo sapiens, UniProt P42574); format: functional;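 note: Dose-response selectivity test against caspase-3 for candidate inhibitors of sentrin-specific proteases (SENPs)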
T3 sequence (P42574 whole entry): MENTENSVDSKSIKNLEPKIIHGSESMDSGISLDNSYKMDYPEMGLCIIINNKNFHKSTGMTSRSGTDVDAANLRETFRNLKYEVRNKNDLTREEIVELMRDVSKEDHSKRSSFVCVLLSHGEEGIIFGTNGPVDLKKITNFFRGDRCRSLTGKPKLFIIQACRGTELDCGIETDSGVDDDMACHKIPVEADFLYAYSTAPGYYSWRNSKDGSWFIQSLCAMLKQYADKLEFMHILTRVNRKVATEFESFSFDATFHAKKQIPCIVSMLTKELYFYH

[4] = test system: INS1; assay: beta cell apoptosis inhibitors, cytokine rescue, dose response, luminescence, retest (AID 449756); format: functional, cell-based; details: Rattus norvegicus;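 note: cell death triggered by IL-1 beta plus TNF-alpha plus IFN-gamma mixture; protective hits raise ATP signal compared with cytokine alone wells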
[5] = test system: BJ; assay: cells; format: functional, cell-based; details: Homo sapiens
[6] = cytotoxicity toward DRD oncogenic fibroblasts, dose response, cell-based, non-viral oncogenic, luminescence (AID 1934); format: functional; details: Homo sapiens
[7] = test system: BJ; assay: cytotoxicity toward BJ-TERT-LT-ST fibroblasts, dose response, cell-based, RAS-independent, luminescence (AID 1935); format: functional; details: Homo sapiens;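 note: BJ fibroblasts immortalized with TERT plus LT and ST oncogenes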
[8] = test system: BJ; assay: cytotoxicity toward BJ-TERT fibroblasts, dose response, cell-based, RAS-independent, luminescence (AID 1933); format: functional; details: Homo sapiens

Row | SMILES | IC50 [1] | IC50 [2] | IC50 [3] | AC50 [4] | EC50 [5] | EC50 [6] | EC50 [7] | EC50 [8]
1 | CCc1cc[n+](C2=C([N-]S(=O)(=O)c3cccs3)C(=O)c3ccccc3C2=O)cc1 | 11.2 µM (active) | 3.57 µM (active) | 12.5 µM (active) | 2.76 µM (active) |  |  |  | 
2 | O=C(NC1=C(NC2CCS(=O)(=O)C2)C(=O)c2ccccc2C1=O)c1ccccc1 (configuration not stated) | 2.1 µM (active) |  |  |  | 3.28 µM (active) | 14.6 µM (active) | > 75 µM (not active) | 11 µM (inconclusive)
3 | CCCC(=O)NC(c1ccc(N(C)C)cc1)c1ccc2cccnc2c1O (configuration not stated) |  |  |  | 0.598 µM (active) | 3.42 µM (active) | 2.54 µM (active) | 2.72 µM (active) | 2.5 µM (active)
4 | COc1ccccc1N(/N=C1\Sc2ccccc2C1=O)C(C)=O | 13.3 µM (active) | 4.28 µM (active) | 27.8 µM (active) |  |  |  |  | 
